The values that follow come from patent US20070135509A1, “Indolone compounds useful to treat cognitive impairment” (priority 2005, published 2007).

For assay [1], the system named is C57BL/6 mice. The assay can be described thus: Contextual fear conditioning (contextual memory, freezing to context). The format is in vivo. Conditions: for 24 h contextual memory (freezing) / freezing to context 24 hr after training: mean±SEM; for 24 h contextual memory (freezing): controls 22.3±3.2%; for freezing to context 24 hr after training: controls 24.5±3.2%. The source says: Contextual Memory. Contextual memory is a form of Pavlovian fear conditioning in which a naïve mouse is placed into a novel chamber (context) containing distinct visual, olfactory and tactile cues. After a few seconds of acclimation, the mouse receives a brief, mild electric shock to its feet. From this negative experience, the mouse will remember for months that that chamber is dangerous. When placed back into the same context at some later time after training, the mouse's natural response to danger is to “freeze,” sitting stone still for many seconds. This is similar to what happens to humans when they experience fear. The percent of time during an observation period that the mouse spends frozen represents a quantitative measure (memory score) of its memory of the context.
(§1) Subjects. Young-adult (10-12 weeks old) C57B1/6 male mice (Taconic, N.Y.) were used. The mice were housed (5 mice) in standard laboratory cages and maintained on a 12:12 light-dark cycle. The experiments were always conducted during the light phase of the cycle. The day before the initiation of the experiment, mice were housed single in individual cages and maintained so until the end of the experiment. With the exception of testing times, the mice had liberal access to food and water. The experiments were conducted in accordance with Animal Welfare Assurance #A3280-01. Animals were maintained in accordance with the Animal Welfare Act and Department of Health and Human Services Guide.
Contextual Conditioning Training and Testing. To assess contextual memory, a standardized contextual fear conditioning task originally developed for evaluation of memory in cyclic AMP response element binding protein (“CREB”) knock-out mice was used (Bourtchouladze et al., 1994). On the training day, the mouse was placed into the conditioning chamber (Med Associates, Inc., VA) for 2 minutes before the onset of unconditioned stimulus (US), 0.5 mA, of 2 second foot shock. The US was repeated two times with a 1 min inter-trial interval between shocks. Training was performed by automated software package (Med Associates, Inc., VA). After the last training trial, the mice were left in the conditioning chamber for another 30 seconds and were then placed back in their home cages. 24 hours after training, the mouse was placed into the same training chamber and contextual memory was assessed by scoring freezing behavior (‘freezing’ serves as memory score). Freezing was defined as the complete lack of movement in intervals of 5 seconds (Kim et al., 1993; Phillips & LeDoux, 1992; Bourtchouladze et al., 1994; 1998; Abel et al., 1997). Total testing time lasted 3 minutes. After each experimental subject, the experimental apparatus was thoroughly cleaned with 75% ethanol, water, dried, and ventilated for a few minutes.
Contextual Conditioning Data Analysis. All experiments were designed and performed in a balanced fashion, meaning that (i) for each experimental condition (e.g. a specific dose-effect) we used an equal number of experimental and control mice; (ii) each experimental condition was replicated 2-3 independent times, and replicate days were added to generate final number of subjects. The proceeding of each experiment was filmed. In each experiment, the experimenter was unaware (blind) to the treatment of the subjects during training and testing. Data were analyzed by Student's unpaired t test using a software package (Statwiew 5.0.1; SAS Institute, Inc). All values in the text and figures are expressed as mean±SEM.
Drug Compound Administration. Compound 2 was freshly prepared from a stock solution (10 mg/ml DMSO), which was maintained at 4° C. Compound 2 was dissolved in a suspension of 5% DMSO and 95% CMC at 2% in water and administered intraperitoneally (I.P.) at doses 5 mg/kg; 10 mg/kg and 30 mg/kg 20 min before training or at 1 mg/kg and 30 mg/kg orally 60 min before training. Control animals received vehicle alone (5% DMSO and 95% CMC at 2% in water). […]

The subject of assay [2] is C57BL/6 mice. The assay can be described thus: Object recognition (novel object recognition memory). The format is in vivo. The conditions noted are these: for Discrimination Index (DI), 24 hour object recognition: mean±SEM, vehicle -10.2±4.
Excerpt: Object Recognition. […] This task relies on the natural curiosity of rodents to explore novel objects in their environments more than familiar ones. Obviously, for an object to be “familiar,” the animal must have attended to it before and remembered that experience.
During training, a mouse is presented with two identical, novel objects. Mice explore them equally by approaching, sniffing and crawling over them. During testing, the animal is presented with the training object and a second, novel one. Memory of the training object renders it familiar to the animal, and it then spends more time exploring the new novel object rather than the familiar one (Bourtchouladze t al., 2003). […] Consistent with these findings, rats with the PFC lesions show poor working memory when they are required to discriminate between familiar and novel objects (Mitchell, 1998).
as §1
Object Recognition Training and Testing. […]
Object Recognition Data Analysis. […] Types were reviewed by a blinded observer and the following behavioral parameters were determined: time of exploration of an each object; the total time of exploration of the objects; number of approaches to the objects; and time (latency) to first approach to an object. The discrimination index—memory score—was determined as described previously (Ennaceur et al., 1997, Bourtchouladze et al., 2003). […] All values in the text and figures are expressed as mean±SEM. […]

In the case of `O=C1C(=Nc2cccc(C(F)(F)F)c2)c2ccccc2N1c1ccccc1` [Compound 2, 1-PHENYL-3-[[3-(TRIFLUOROMETHYL)PHENYL]IMINO]-1,3-DIHYDRO-2H-INDOL-2-ONE], the “24 h contextual memory (freezing)” value was 36.4±3.9% with C57BL/6 mice [1] (1 mg/kg oral 60 min before training, p<0.01) and 34.1±4.3% in the assay with C57BL/6 mice [1] (30 mg/kg oral 60 min before training, p<0.05). Besides, the “freezing to context 24 hr after training” value came to 40.3±4.7% in the assay on C57BL/6 mice [1] (5 mg/kg I.P. 20 min before training, p<0.05); 51.4±9.1% in the assay on C57BL/6 mice [1] (10 mg/kg I.P. 20 min before training, p<0.01); 49.1±3.7% with C57BL/6 mice [1] (30 mg/kg I.P. 20 min before training, p<0.001). For the same compound, the “Effects on contextual memory in mice (FIG. 1)” value in the assay on C57BL/6 mice [1] (5 mg/kg, 10 mg/kg and 30 mg/kg i.p., 24 hours after training) was “significantly facilitated freezing to context”. The “Effects on contextual memory in mice (FIG. 2)” value in the assay on C57BL/6 mice [1] (single dose of 1 mg/kg or 30 mg/kg orally, 24 hr) is on record as “significantly enhanced 24 hr contextual memory”. Also, the “Effect on object recognition memory in mice (FIG. 3)” value with C57BL/6 mice [2] (1 mg/kg and 5 mg/kg i.p. twenty (20) minutes before training, C57BL/6 mice) is “ameliorated long-term memory deficit”. Moreover, the “Discrimination Index (DI), 24 hour object recognition” value in the assay with C57BL/6 mice [2] (1 mg/kg i.p. 20 minutes before 15-minute training, p<0.05) stood at 5.1±6; in the assay with C57BL/6 mice [2] (5 mg/kg i.p. 20 minutes before 15-minute training, p<0.0005), 18.8±6.6.
